Here are results for 62 compounds from a melting point compilation (Tetko et al.; mined from patent text by program, amines drawn as free bases though some values may be those of a salt).

In turn, `Fc1ccc(Cn2c(NC3CCN(CCc4ccccn4)CC3)nc3ccccc32)cc1` yielded a melting point of 133 °C. Under `Cc1c(CCl)nc2c(NC(=O)C(C)(C)C)cccn12` stands 168 °C; under `CC(C)=CCOc1ccc(C(=O)C=Cc2c(Cl)cccc2Cl)c(O)c1`, 101 to 102 °C; under `N#Cc1ccc(C2=NNC(=O)C3CC23)cc1` (configuration not stated), 265 to 266 °C. Under `COc1cccc(C(=O)NCCc2ccc(-c3ccc(OC(C)(C)C(=O)O)cc3)cc2)c1OC` stands 184 °C; under `COc1ccc(N2C=CN(CCC(C)(C)NCC(O)c3ccc(OCc4ccccc4)c(CO)c3)C2)cc1` (configuration not stated), 108 to 111 °C.

With `CCOC(=O)c1cccc(-c2ccc(Cl)c3cc(CBr)sc23)c1`, the melting point lay in the range of 143 to 144 °C. The result for `O=C(Cc1ccccc1)Nc1ccccc1` reads 115 to 116 °C; that for `O=C(Nc1ccc(-n2nc(C(F)(F)F)cc2C(F)(F)F)cc1)c1cccc(F)c1F`, 147 to 149 °C.

In the case of `O=C(O)c1ccnc2[nH]ccc12`, the melting point was more than 300 °C. `COc1ccccc1C1C2CCC(C2)C12CCC(=S)N2` (configuration not stated) showed a melting point of 194 °C. The result for `COC(=O)[C@@H]1C[C@@H](O)CN1C(=O)c1ccc(C#N)cc1` reads 101 to 102 °C; that for `CCCCCCCOc1ccc(C(=O)O)c(Cl)c1`, 76 to 78 °C; that for `O=C(NCCO)c1cnc(C(F)(F)F)s1`, 128 to 130 °C. On to `Cc1nc2ccccc2n1C`, for which the melting point was 102 °C. The compound `C=CCN(CC=C)C(=O)n1cnc(S(=O)(=O)CCC)n1` yielded a melting point of 41 to 42 °C. Compound `COc1cc2c(cc1OC)C(Oc1ccc(Cl)cc1)CN(C)C2` (configuration not stated) gave a melting point of 112 to 115 °C. The result for `CNc1nccc(-c2c(-c3ccc(F)cc3)ncn2C2CC(C)(C)NC(C)(C)C2)n1` reads 221 to 222 °C. Under `N#CSc1cc([N+](=O)[O-])ccc1Cl` stands 103 °C; under `COc1ccccc1-c1cc(C(=O)O)cc(-n2cnnn2)c1`, 214 to 215 °C. Under `CCOc1cccc(CNCCc2ccccc2)c1O` stands 88 to 90 °C; under `CC(C)(C)c1cc(C(C)(C)C)c2c(c1)C1(O)C(=O)c3ccccc3C1(O)O2` (configuration not stated), 200 to 203 °C; under `CCc1cc(-c2ccc(OC)cc2)n(-c2ccc(S(N)(=O)=O)cc2)c1`, 154 to 156 °C.

The compound `COc1cc2ccc(-c3ccc(C(=O)O)cc3)cc2cc1C(C)(C)C` came in with a melting point of 283 °C. Take `CN(C)CCc1cn(Cc2ccccc2)c2ccc(C(C#N)S(=O)(=O)N(C)C(c3ccccc3)c3ccccc3)cc12` (configuration not stated): the melting point fell in the range of 98 to 100 °C.

Regarding `CC(C)CC(NC(=O)Cc1ccc(NC(=O)Nc2ccccc2)cc1)c1ncc(CCC(=O)O)s1` (configuration not stated), the melting point lay within 146 to 148 °C. The result for `CC=CC(=O)N1CCN(NC(=O)c2ccc(F)cc2)CC1` reads 191 to 193 °C. The result for `COc1cc2c(cc1OCc1ccccc1)CCN(Cc1cc(OC)c(OC)c(OC)c1)C2=O` reads 136 to 137 °C. The result for `CCOC(=O)c1cc2cccc(N(C)S(=O)(=O)c3cccs3)c2[nH]1` reads 164 to 165 °C; that for `O=C(O)CCCCCc1cncc2ccccc12`, 131 to 132 °C; that for `O=C(O)CCCCCCC=C(c1ccccc1)c1ccccc1`, 77.5 to 78.5 °C. As for `COc1ccc2cc(C(O)=CC(C)=O)cc(F)c2c1`, the melting point lay in the range of 107 to 108 °C. `Nc1ccc(C(=O)N2Cc3ccccc3Sc3ccccc32)cc1` returned a melting point of 52 to 55 °C. For `N#CC(C#N)(COc1ccccc1Cl)NC(=O)c1ccc(OC(F)(F)F)cc1`, the melting point lay within 154 to 155 °C. The result for `CN1CCN(CCc2ccc(Nc3ncc4c(n3)-c3ccccc3C(c3cccc(Br)c3)C4)cc2)CC1` (configuration not stated) reads 100 to 102 °C. Under `CC(CCCC(C)(C)O)C1CCC2C3=CC=C4CC(O)C(OCCCO)C(O)C4(C)C3CCC21C` (configuration not stated) stands 118 to 120 °C; under `COc1cc(C)nc(-c2ccc(C=O)cc2)n1`, 125 to 126 °C; under `COc1ccc(C=C2CS(=O)(=O)CC(=Cc3ccc(OC)cc3)C2(O)NC2=NCCS2)cc1` (configuration not stated), 194 to 196 °C. Under `Cc1c(C(=O)Nc2ccc(N3CCC(O)CC3)c(C#N)c2)cnn1-c1ccccc1` stands 182 °C; under `COc1cc(-c2cc3ccccc3[nH]2)cc(OC)c1OS(=O)(=O)c1ccccc1`, 150 °C; under `CCCC[C@H](NC(=O)[C@H](CC(C)C)NC(=O)OCc1ccc(C#N)cc1)C(=O)CSCc1ccco1`, 83 to 89 °C.

`O=C(O)C1CC(c2ccc(-c3ccc(N4C[C@H](Cn5ccnn5)OC4=O)cc3F)cn2)=NO1` (some centres not stated) came in with a melting point of 190 to 194 °C.

`CN1Cc2c(-c3noc(CCl)n3)ncn2-c2ccccc2C1=O` yielded a melting point of 208 to 209 °C. In the case of `CCCCCOc1ccc(-c2ccc(-c3nc(N)nc(N)n3)cc2)cc1`, the melting point is 246 to 249 °C. With `COc1c(N2C[C@H](CF)[C@](C)(N)C2)c(F)cc2c(=O)c(C(=O)O)cn(C3CC3)c12`, the melting point fell in the range of 226 to 229 °C.

`CN(C)C=C1C[N+]([O-])=C(c2ccccc2F)c2cc(Cl)ccc2C1=O` gave a melting point of 175 to 178 °C. For `Cc1cn(-c2cccc(C(=O)CC(=O)Nc3cc(-c4ccc(F)cc4)ccc3NC(=O)OC(C)(C)C)c2)cn1`, the melting point was 124 °C. Regarding `CC1(C)CN=C(c2cnc3ccccc3c2)c2ccccc2O1`, the melting point is 134 to 135 °C. On to `CCOc1ccc(OCC)c(C=O)c1`, for which the melting point lay within 60 to 61 °C. The result for `COC(=O)C1Cc2c(C)ccc(C)c2N1` (configuration not stated) reads 80 °C. Turning to `CN(C)CCn1c(=O)c2ccc([N+](=O)[O-])cc2c2cnc3cc4c(cc3c21)OCO4`, the melting point lay in the range of 111 to 112 °C. The result for `COc1c(N2CCC(n3cncn3)C2)c(F)cc2c(=O)c(C(=O)O)cn(C3CC3)c12` (configuration not stated) reads 221 to 222 °C; that for `Cc1nc(-c2ccc(C(F)(F)F)cc2)sc1CSc1ccc2oc(C(=O)O)cc2c1`, 207 to 209 °C; that for `Cc1c(C#N)c2c(c(C)c1NC(=O)CC(C)(C)C)C(c1ccc(C(C)C)cc1)CO2` (configuration not stated), 135 to 136 °C.

`CN(C(=O)N[C@@H](Cc1ccc(NC(=O)c2c(Cl)cccc2Cl)cc1)C(=O)O)c1ccccc1C(=O)NCC1CCCCC1` returned a melting point of 201 °C. Under `CCC(CC)n1c(=O)ccc2cnc(Nc3ccc(N4CCN(C)CC4)cc3)nc21` stands 155 to 157 °C; under `Cc1nc2c(N)nc3ccccc3c2n1CCOCc1ccccc1`, 159 to 160 °C. With `COC(=O)C(O)C(NCc1ccccc1)c1ccccc1` (configuration not stated), the melting point was determined as 99 °C.

`N=C(N)NCCCOc1cccc2c1NC(=O)C(CC(=O)O)C2` (configuration not stated) had a melting point of 151 to 155 °C.

`Cc1ncnn1-c1cc(F)ccc1C#N`: the melting point lay in the range of 120 to 121 °C.

`COc1cc2c(Nc3ccc(Oc4cccnc4)cc3)c(C#N)cnc2cc1F` had a melting point of 235 to 236 °C. Under `CCCCc1nc(Cl)c(Cc2nnn[nH]2)n1Cc1ccc(C(=O)c2ccccc2C(=O)O)cc1` stands 228 to 230 °C.
